Assay results: PMC11537199 (RSC Advances, 2024)
Several values for one entry are separate records, joined by “and”; a condition that tells them apart may be missing. Identical values can stand only once. Like-named read-outs stand apart in the source and are kept apart here.

Legend:
Polio M^pro = Polio M^pro (Poliovirus type 1, UniProt P03300); details: pH 7.6
EV71 M^pro = EV71 M^pro (Human enterovirus 71, UniProt Q66478); assay type: biochemical, enterovirus A71 (EV71); details: 500 nM enzyme, substrate 6-850 μM; for catalytic efficiency (kcat/KM): Table 8
NV M^pro = NV M^pro (Norovirus, UniProt Q83883); assay type: biochemical; details: 500 nM enzyme, substrate 6-850 μM; for catalytic efficiency (kcat/KM): Table 8
EqCoV M^pro = assay type: biochemical, equine coronavirus (EqCoV); details: pH 7.6
PEDV M^pro = assay type: biochemical, porcine epidemic diarrhea virus (PEDV); details: for K M / Km / vmax: pH 7.6
HRV M^pro = HRV M^pro (Human rhinovirus 14, UniProt P03303); assay type: biochemical; details: 500 nM enzyme, substrate 6-850 μM; for vmax: Fig. S29 Michaelis-Menten fit; for vmax / catalytic efficiency (kcat/KM): Bis-Tris pH 7.6, 37 °C; for Km: Table 7, 20 mM Bis-Tris pH 7.6, 1 mM DTT, 0.02% Tween-20, 37 °C, read 60 min; for catalytic efficiency (kcat/KM): Table 8
[1] = tested on: picornavirus and norovirus M^pros (PV, HRV, EV71, NV); assay type: biochemical, poliovirus, human rhinovirus, enterovirus A71; details: cross-test against PV, EV71 and NV M^pro, 500 nM enzyme, Bis-Tris pH 7.6, 37 °C
SARS-CoV-2 M^pro [2] = biological target: T1, SARS-CoV-2 M^pro (Severe acute respiratory syndrome coronavirus 2, UniProt P0DTD1)
[3] = tested on: coronavirus M^pros (SARS-CoV-2, FIPV, PEDV, EqCoV); assay type: biochemical
[4] = tested on: coronaviral M^pros (SARS-CoV-2, FIPV, PEDV, EqCoV); assay type: biochemical
SARS-CoV-2 M^pro [5] = biological target: T1, SARS-CoV-2 M^pro; details: pH 7.6
FIPV M^pro = FIPV M^pro (Feline coronavirus, UniProt Q98VG9); assay type: biochemical, feline infectious peritonitis virus (FIPV); details: pH 7.6
[6] = Fig. S31 Michaelis-Menten fit, Bis-Tris pH 7.6, 37 °C
[7] = Table 7, 20 mM Bis-Tris pH 7.6, 1 mM DTT, 0.02% Tween-20, 37 °C, read 60 min
[8] = Fig. S32 Michaelis-Menten fit, Bis-Tris pH 7.6, 37 °C

Sequence of Polio M^pro (P03300 1566-1748 limits assumed): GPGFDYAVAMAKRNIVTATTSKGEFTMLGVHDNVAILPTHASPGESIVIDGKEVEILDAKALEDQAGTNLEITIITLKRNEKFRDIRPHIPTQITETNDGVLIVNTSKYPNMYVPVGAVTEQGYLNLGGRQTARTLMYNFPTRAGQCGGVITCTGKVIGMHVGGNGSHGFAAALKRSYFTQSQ
Sequence of HRV M^pro (P03303 1538-1719 limits assumed): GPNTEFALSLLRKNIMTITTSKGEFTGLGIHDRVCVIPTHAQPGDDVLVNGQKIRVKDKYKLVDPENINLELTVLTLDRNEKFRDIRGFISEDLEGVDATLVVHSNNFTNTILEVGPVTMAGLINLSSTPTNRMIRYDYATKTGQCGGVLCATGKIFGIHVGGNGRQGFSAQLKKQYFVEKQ
Sequence of EV71 M^pro (Q66478 1549-1731 limits assumed): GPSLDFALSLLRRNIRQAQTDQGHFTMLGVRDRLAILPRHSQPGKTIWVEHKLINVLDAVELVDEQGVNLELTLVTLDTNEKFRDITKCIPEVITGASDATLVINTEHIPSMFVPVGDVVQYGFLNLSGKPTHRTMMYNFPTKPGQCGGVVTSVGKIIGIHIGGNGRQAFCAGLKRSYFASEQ
Sequence of NV M^pro (Q83883 1101-1281 limits assumed): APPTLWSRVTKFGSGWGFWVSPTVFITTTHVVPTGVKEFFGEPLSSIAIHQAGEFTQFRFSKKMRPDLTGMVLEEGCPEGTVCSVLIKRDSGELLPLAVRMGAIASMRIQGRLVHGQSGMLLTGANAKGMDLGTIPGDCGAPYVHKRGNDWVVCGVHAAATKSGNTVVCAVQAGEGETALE
Sequence of FIPV M^pro (Q98VG9 2904-3205 limits assumed): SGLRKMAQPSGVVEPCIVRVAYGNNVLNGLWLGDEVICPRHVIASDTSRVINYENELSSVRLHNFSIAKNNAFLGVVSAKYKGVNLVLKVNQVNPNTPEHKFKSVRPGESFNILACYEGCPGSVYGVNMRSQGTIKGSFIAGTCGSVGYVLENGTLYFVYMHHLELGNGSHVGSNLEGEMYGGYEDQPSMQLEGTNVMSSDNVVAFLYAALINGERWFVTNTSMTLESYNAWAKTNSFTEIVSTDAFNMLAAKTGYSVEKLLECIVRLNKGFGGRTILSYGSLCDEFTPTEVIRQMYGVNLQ

For 2-Abz-EFQLQ↓GKMYDY^(NO2)R [NVFRET], the vmax (Polio M^pro) was 4.136 ± 1.36 µM/s, the Km (EV71 M^pro; [6]) was 1100 µM and the vmax (EV71 M^pro; [6]) was 1.914 ± 0.29 µM/s. For the same compound, the Km (EV71 M^pro; [7]) was 1100 ± 201 µM, the “catalytic efficiency (kcat/KM)” value (EV71 M^pro; Bis-Tris pH 7.6, 37 °C) was 3400 ± 455 M⁻¹ s⁻¹ and the vmax (NV M^pro; [8]) was 0.4163 ± 0.08 µM/s. For the same compound, the Km (NV M^pro; [7]) was 613 ± 188 µM and the “catalytic efficiency (kcat/KM)” value (NV M^pro; Bis-Tris pH 7.6, 37 °C) was 1300 ± 167 M⁻¹ s⁻¹.

In the case of “2-Abz-NSTLQ↓SGY^(NO2)R [PEDV 2, truncated version of the PEDV FRET substrate]”, the vmax (EqCoV M^pro) is reported as 0.4516 µM/s, the k cat (PEDV M^pro) is reported as 2.6 ± 0.2 s⁻¹ and the “K M” value (PEDV M^pro) is reported as 63 ± 11 µM. It also gave a Km (PEDV M^pro) of 63 ± 11 µM and a vmax (PEDV M^pro) of 0.266 ± 0.02 µM/s.

In the case of 2-Abz-EALFQ↓GPPKY^(NO2)R [EV71FRET], the vmax (HRV M^pro) is reported as 0.7709 ± 0.08 µM/s, the Km (HRV M^pro) is reported as 480 ± 80 µM and the “catalytic efficiency (kcat/KM)” value (HRV M^pro) is reported as 3200 ± 405 M⁻¹ s⁻¹. For the same compound, the “recognition of substrate by picornaviral and noroviral main proteases” value [1] was “somewhat more promiscuous”, the Km (Polio M^pro) was 1140 µM and 1110 µM and the “catalytic efficiency (kcat/KM)” value (Polio M^pro) was 2700 ± 315 M⁻¹ s⁻¹. The vmax (Polio M^pro) was 1.366 ± 0.30 µM/s, the Km (EV71 M^pro; [6]) was 1640 µM and the vmax (EV71 M^pro; [6]) was 1.029 ± 0.13 µM/s. The Km (EV71 M^pro; [7]) was 1640 ± 261 µM, the “catalytic efficiency (kcat/KM)” value (EV71 M^pro; Bis-Tris pH 7.6, 37 °C) was 1300 ± 138 M⁻¹ s⁻¹ and the Km (NV M^pro; [8]) was 622 µM. For the same compound, the vmax (NV M^pro; [8]) was 1.410 ± 0.16 µM/s, the Km (NV M^pro; [7]) was 620 ± 153 µM and the “catalytic efficiency (kcat/KM)” value (NV M^pro; Bis-Tris pH 7.6, 37 °C) was 4500 ± 515 M⁻¹ s⁻¹.

In the case of “2-Abz-DFHLQ↓GPY^(NO2)R [NPFRET, shorter, truncated consensus substrate proposed in the literature, reference compound]”, the “recognition of substrate by picornaviral and noroviral main proteases” value [1] is reported as “lack of binding”.

In the case of 2-Abz-YNSTLQ↓SGY^(NO2)R [PEDV 1], the vmax (EqCoV M^pro) is reported as 0.4075 µM/s, the k cat (PEDV M^pro) is reported as 3.3 ± 0.3 s⁻¹ and the “K M” value (PEDV M^pro) is reported as 192 ± 26 µM. The Km (PEDV M^pro) was 192 ± 26 µM and the vmax (PEDV M^pro) was 0.330 ± 0.02 µM/s.

In the case of “2-Abz-STLAAGY^(NO2)R [(−) FRET, negative control FRET peptide that lacks the QS cleavage site]”, the “cleavage by SARS-CoV-2 M^pro (LCMS analysis of cleavage products)” value (SARS-CoV-2 M^pro [2]) is reported as “no cleavage” and the “recognition of substrate by coronavirus M^pros” value [3] is reported as “None of the investigated M^pros recognize”.

In the case of `C[S+](C)[O-]` [DMSO, dimethyl sulfoxide], the “decrease of enzyme activity” value [4] is reported as 42–60%.

For 2-Abz-VVTLQ↓SGY^(NO2)R [Blanchard-VV], the Km (EqCoV M^pro) was 371 ± 70 µM, the Km (PEDV M^pro) was 85 ± 10 µM and the vmax (PEDV M^pro) was 0.360 ± 0.04 µM/s. The Km (SARS-CoV-2 M^pro [5]) was 64 ± 10 µM, the vmax (SARS-CoV-2 M^pro [5]) was 0.2927 ± 0.02 µM/s and the Km (FIPV M^pro) was 85 ± 15 µM. It also gave a vmax (FIPV M^pro) of 0.3231 ± 0.04 µM/s.

For 2-Abz-ETLFQ↓GPVY^(NO2)R [HRFRET], the vmax (HRV M^pro) was 0.5348 ± 0.08 µM/s, the Km (HRV M^pro) was 340 ± 49 µM and the “catalytic efficiency (kcat/KM)” value (HRV M^pro) was 3000 ± 285 M⁻¹ s⁻¹. For the same compound, the “recognition of substrate by picornaviral and noroviral main proteases” value [1] was “only specific to rhinovirus M^pro”.

With Tween-20 the “effect on catalytic activity” value [4] was “do not significantly reduce catalytic activity”.
